≈ marks a conversion by molar mass, not a printed value.
Assays:
PBMC = assay: Antiinflammatory activity in human PBMC assessed as inhibition of LPS-induced TNFalpha production; format: functional, cell-based
[1] = molecular target: Mitogen-activated protein kinase 14 (Homo sapiens, UniProt Q16539); assay: Inhibition of human recombinant p38alpha
[2] = molecular target: Tyrosine-protein kinase BTK (Homo sapiens, UniProt Q06187); assay: Inhibition of Btk
[3] = molecular target: Vascular endothelial growth factor receptor 2 (Homo sapiens, UniProt P35968); assay: Inhibition of KDR
Cytochrome P450 2C9 = Cytochrome P450 2C9 (Homo sapiens, UniProt P11712); assay: Inhibition of CYP2C9; format: ADME
[4] = Inhibition of PKCtau
[5] = molecular target: Voltage-gated inwardly rectifying potassium channel KCNH2 (Homo sapiens, UniProt Q12809); assay: Inhibition of human ERG by flux assay
[6] = molecular target: Fibroblast growth factor receptor 1 (Homo sapiens, UniProt P11362); assay: Inhibition of FGFR1
Cytochrome P450 2D6 = Cytochrome P450 2D6 (Homo sapiens, UniProt P10635); assay: Inhibition of CYP2D6; format: ADME
[7] = Inhibition of PDGF receptor
[8] = molecular target: Signal transducer and activator of transcription 3 (Homo sapiens, UniProt P40763); assay: Inhibition of STAT3
[9] = Inhibition of CaMK2
[10] = molecular target: Serine/threonine-protein kinase PLK1 (Homo sapiens, UniProt P53350); assay: Inhibition of PLK1
Mus musculus = assay: Antiinflammatory activity in mouse plasma assessed as inhibition of LPS-induced TNFalpha production at 5 mg/kg, po administered 24 hrs before LPS challenge measured after 90 mins; format: functional
[11] = Inhibition of GSK3
[12] = molecular target: Diacylglycerol O-acyltransferase 1 (Homo sapiens, UniProt O75907); assay: Inhibition of DGAT
[13] = molecular target: Protein kinase C delta type (Homo sapiens, UniProt Q05655); assay: Inhibition of PKCdelta
Protein kinase C delta type, sequence (Q05655 whole entry): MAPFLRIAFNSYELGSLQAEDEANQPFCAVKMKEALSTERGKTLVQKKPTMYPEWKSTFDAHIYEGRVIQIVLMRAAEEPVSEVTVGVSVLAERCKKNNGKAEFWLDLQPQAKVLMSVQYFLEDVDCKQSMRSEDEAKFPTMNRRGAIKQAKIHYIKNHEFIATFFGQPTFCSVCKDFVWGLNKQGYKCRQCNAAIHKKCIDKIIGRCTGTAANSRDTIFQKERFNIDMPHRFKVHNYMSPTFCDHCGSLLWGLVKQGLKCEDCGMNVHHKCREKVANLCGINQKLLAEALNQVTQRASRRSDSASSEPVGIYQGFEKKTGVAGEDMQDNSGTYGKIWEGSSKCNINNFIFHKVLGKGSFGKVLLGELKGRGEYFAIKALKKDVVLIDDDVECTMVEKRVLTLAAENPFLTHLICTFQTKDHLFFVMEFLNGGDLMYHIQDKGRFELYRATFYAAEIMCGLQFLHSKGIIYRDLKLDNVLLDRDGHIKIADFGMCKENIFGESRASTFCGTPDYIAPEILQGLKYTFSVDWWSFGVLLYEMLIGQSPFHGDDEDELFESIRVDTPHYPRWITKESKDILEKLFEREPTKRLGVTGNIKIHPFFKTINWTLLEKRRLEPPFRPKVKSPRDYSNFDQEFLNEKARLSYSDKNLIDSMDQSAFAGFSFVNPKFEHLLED

[14] = Metabolic rate in rat liver microsomes at 3 uM after 10 mins
[15] = molecular target: Tyrosine-protein kinase JAK3 (Homo sapiens, UniProt P52333); assay: Inhibition of Jak3
[16] = Inhibition of VEGF receptor
[17] = Aqueous solubility of the compound at pH 6.5; format: physicochemical
[18] = molecular target: Insulin-like growth factor 1 receptor (Homo sapiens, UniProt P08069); assay: Inhibition of IGF-1R
[19] = Metabolic rate in human liver microsomes at 3 uM after 10 mins
[20] = molecular target: Tyrosine-protein kinase ITK/TSK (Homo sapiens, UniProt Q08881); assay: Inhibition of Itk
Tyrosine-protein kinase ITK/TSK, sequence (Q08881 whole entry): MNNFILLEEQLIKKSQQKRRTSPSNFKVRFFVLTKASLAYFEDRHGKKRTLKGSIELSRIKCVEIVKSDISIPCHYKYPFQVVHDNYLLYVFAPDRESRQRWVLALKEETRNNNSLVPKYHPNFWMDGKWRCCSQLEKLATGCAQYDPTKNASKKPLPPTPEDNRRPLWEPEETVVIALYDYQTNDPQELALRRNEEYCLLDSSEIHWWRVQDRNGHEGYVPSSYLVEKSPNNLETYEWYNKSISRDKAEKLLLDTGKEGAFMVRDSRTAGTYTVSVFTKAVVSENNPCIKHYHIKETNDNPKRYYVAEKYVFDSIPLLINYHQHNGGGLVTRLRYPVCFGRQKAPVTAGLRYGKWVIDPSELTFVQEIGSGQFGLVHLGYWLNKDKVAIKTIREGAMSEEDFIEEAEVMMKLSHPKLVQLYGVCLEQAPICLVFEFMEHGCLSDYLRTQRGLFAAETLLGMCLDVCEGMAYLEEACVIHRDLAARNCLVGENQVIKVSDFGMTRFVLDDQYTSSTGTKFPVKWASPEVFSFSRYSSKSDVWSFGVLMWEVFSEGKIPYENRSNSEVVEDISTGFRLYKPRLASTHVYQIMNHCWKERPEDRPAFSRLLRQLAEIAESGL

[21] = molecular target: Protein kinase C alpha type (Homo sapiens, UniProt P17252); assay: Inhibition of PKCalpha
Cytochrome P450 3A4 = Cytochrome P450 3A4 (Homo sapiens, UniProt P08684); assay: Inhibition of CYP3A4; format: ADME
Cytochrome P450 3A4, sequence (P08684 whole entry): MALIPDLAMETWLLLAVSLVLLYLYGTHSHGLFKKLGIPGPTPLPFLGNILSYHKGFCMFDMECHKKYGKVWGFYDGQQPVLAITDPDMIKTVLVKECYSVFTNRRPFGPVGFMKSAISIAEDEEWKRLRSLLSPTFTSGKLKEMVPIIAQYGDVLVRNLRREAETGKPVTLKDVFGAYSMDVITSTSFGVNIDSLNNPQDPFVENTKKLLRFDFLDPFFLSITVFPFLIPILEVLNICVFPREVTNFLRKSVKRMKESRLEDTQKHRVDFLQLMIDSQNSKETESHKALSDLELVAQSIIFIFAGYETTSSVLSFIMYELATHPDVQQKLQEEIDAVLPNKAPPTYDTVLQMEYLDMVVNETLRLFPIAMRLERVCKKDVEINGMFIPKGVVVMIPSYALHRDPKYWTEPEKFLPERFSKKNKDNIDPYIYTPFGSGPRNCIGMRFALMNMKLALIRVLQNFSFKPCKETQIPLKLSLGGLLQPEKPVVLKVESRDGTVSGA

[22] = Apparent permeability across human Caco-2 cells; format: ADME, cell-based; settings: read-out: permeability
Cytochrome P450 1A2 = Cytochrome P450 1A2 (Homo sapiens, UniProt P05177); assay: Inhibition of CYP1A2; format: ADME
[23] = molecular target: Protein kinase C zeta type (Homo sapiens, UniProt Q05513); assay: Inhibition of PKCzeta
Protein kinase C zeta type, sequence (Q05513 whole entry): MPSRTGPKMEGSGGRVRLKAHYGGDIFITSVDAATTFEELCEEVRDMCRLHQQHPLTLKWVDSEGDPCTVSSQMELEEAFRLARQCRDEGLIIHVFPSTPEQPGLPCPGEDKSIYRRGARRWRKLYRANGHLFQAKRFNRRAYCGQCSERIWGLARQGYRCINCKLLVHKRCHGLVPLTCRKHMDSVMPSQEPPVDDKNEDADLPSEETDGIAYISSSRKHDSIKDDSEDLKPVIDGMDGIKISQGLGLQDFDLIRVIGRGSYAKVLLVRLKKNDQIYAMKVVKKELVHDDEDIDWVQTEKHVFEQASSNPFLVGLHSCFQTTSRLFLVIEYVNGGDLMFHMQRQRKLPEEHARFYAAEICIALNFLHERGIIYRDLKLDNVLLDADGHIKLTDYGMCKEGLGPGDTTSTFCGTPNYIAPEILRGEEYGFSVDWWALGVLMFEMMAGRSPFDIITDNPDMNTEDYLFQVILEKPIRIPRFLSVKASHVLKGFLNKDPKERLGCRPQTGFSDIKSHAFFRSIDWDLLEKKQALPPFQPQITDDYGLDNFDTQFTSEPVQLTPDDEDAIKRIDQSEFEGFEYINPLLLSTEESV

[24] = Inhibition of Lckzeta
[25] = molecular target: Non-receptor tyrosine-protein kinase TYK2 (Homo sapiens, UniProt P29597); assay: Inhibition of Tyk2
Cytochrome P450 2C19 = Cytochrome P450 2C19 (Homo sapiens, UniProt P33261); assay: Inhibition of CYP2C19; format: ADME
Cytochrome P450 2C19, sequence (P33261 whole entry): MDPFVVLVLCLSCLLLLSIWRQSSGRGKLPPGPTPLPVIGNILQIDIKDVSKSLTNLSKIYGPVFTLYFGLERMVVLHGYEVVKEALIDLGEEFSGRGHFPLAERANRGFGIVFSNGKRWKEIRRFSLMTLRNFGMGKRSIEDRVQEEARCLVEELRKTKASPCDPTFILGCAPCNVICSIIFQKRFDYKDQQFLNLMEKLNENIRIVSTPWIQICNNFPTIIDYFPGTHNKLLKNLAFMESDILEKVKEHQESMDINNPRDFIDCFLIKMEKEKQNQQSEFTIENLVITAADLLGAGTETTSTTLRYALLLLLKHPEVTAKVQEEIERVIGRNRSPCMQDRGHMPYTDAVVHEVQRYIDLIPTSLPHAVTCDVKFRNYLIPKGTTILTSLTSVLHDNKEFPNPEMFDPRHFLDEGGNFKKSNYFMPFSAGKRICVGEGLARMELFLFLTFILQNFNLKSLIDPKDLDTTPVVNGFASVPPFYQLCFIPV

[26] = Metabolic rate in mouse liver microsomes at 3 uM after 10 mins
[27] = molecular target: MAP kinase-activated protein kinase 2 (Homo sapiens, UniProt P49137); assay: Inhibition of MK2
MAP kinase-activated protein kinase 2, sequence (P49137 whole entry): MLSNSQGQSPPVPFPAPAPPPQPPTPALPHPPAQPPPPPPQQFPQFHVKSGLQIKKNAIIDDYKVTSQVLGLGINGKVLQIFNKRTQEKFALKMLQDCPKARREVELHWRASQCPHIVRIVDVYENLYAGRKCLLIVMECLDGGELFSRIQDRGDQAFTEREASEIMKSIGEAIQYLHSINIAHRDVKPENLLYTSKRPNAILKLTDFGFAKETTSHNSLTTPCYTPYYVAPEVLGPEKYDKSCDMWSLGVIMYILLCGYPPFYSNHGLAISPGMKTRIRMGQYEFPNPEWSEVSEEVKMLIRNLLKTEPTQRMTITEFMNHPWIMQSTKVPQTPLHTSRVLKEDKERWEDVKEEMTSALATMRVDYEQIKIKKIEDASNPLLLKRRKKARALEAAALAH

Mitogen-activated protein kinase 14, sequence (Q16539 whole entry): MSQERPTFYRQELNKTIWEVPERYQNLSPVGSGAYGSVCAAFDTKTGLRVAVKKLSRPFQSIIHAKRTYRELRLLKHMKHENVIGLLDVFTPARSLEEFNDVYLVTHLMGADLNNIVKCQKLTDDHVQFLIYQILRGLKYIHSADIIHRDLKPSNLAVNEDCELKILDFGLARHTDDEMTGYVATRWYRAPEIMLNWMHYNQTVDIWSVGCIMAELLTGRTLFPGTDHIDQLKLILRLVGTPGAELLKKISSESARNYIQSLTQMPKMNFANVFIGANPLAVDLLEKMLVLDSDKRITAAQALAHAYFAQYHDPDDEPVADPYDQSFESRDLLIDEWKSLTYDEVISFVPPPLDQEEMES
Tyrosine-protein kinase BTK, sequence (Q06187 whole entry): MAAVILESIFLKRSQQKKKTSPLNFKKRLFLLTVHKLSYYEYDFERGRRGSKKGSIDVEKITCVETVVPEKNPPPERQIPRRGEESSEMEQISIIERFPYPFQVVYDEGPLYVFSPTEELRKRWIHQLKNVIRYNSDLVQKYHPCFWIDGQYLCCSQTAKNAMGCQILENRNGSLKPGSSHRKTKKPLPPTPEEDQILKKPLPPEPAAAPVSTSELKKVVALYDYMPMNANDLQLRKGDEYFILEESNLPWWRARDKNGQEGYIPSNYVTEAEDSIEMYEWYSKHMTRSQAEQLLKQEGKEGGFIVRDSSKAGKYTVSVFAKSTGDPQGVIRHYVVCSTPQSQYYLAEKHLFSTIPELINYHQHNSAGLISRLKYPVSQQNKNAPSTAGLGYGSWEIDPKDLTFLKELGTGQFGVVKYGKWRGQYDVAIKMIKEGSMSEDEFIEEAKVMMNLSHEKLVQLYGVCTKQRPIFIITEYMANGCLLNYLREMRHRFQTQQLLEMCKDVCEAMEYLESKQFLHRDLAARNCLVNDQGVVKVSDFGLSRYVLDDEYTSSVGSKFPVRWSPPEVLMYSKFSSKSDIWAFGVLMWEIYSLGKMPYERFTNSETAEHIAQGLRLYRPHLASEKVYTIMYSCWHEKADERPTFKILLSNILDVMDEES

Cc1ccc(C(=O)Nc2ccon2)cc1NC(=O)c1cnn(-c2ccccc2)c1N
IC50 (PBMC): 1 nM

CCCCn1ncc(C(=O)Nc2cc(C(=O)Nc3ccnn3C)ccc2C)c1N
IC50 [1]: 7 nM
IC50 (PBMC): 17 nM

CCn1nccc1NC(=O)c1ccc(C)c(NC(=O)c2cnn(-c3ccc(F)cc3)c2N)c1
IC50 [1]: 2 nM
IC50 (PBMC): 2 nM

Cc1ccc(C(=O)Nc2ccon2)cc1NC(=O)c1cnn(-c2ccc(F)cc2)c1N
IC50 [1]: 2 nM
IC50 (PBMC): 2 nM

CCCCn1ncc(C(=O)Nc2cc(C(=O)Nc3ccon3)ccc2C)c1N
IC50 [1]: 2 nM
IC50 (PBMC): 2 nM

CNc1c(C(=O)Nc2cc(C(=O)Nc3ccon3)ccc2C)cnn1-c1ccccc1
IC50 [1]: 5 nM
IC50 (PBMC): 7 nM

CCNC(=O)c1ccc(C)c(NC(=O)c2cnn(-c3ccccc3)c2NCC)c1
IC50 [1]: 6 nM
IC50 (PBMC): 15 nM

CCNc1c(C(=O)Nc2cc(C(=O)Nc3ccon3)ccc2C)cnn1-c1ccccn1
IC50 [1]: 4 nM
IC50 (PBMC): 30 nM

CCNc1c(C(=O)Nc2cc(C(=O)Nc3ccon3)ccc2C)cnn1-c1ccccc1C
IC50 [1]: 5 nM
IC50 (PBMC): 1 nM

CNC(=O)c1ccc(C)c(NC(=O)c2cnn(-c3ccccc3)c2N)c1
IC50 [1]: 14 nM
IC50 (PBMC): 48 nM

CCNC(=O)c1ccc(C)c(NC(=O)c2cnn(-c3ccccc3)c2N)c1
IC50 [1]: 8 nM
IC50 (PBMC): 16 nM

Cc1ccc(C(=O)NC2CC2)cc1NC(=O)c1cnn(-c2ccccc2)c1N
IC50 [1]: 7 nM
IC50 (PBMC): 26 nM

Cc1ccc(C(=O)Nc2ccnn2C)cc1NC(=O)c1cnn(-c2ccccc2)c1N
IC50 [1]: 7 nM
IC50 (PBMC): 5 nM

CCn1nccc1NC(=O)c1ccc(C)c(NC(=O)c2cnn(-c3ccccc3)c2N)c1
IC50 [1]: 5 nM
IC50 (PBMC): 8 nM

Cc1ccc(C(=O)Nc2ccon2)cc1NC(=O)c1cnn(-c2ccccn2)c1N
IC50 [1]: 2 nM
IC50 (PBMC): 8 nM

CCn1nccc1NC(=O)c1ccc(C)c(NC(=O)c2cnn(-c3ccccc3F)c2N)c1
IC50 [1]: 3 nM
IC50 (PBMC): 5 nM

Cc1ccc(C(=O)Nc2ccnn2C)cc1NC(=O)c1cnn(-c2ccccc2F)c1N
IC50 [1]: 4 nM
IC50 (PBMC): 2 nM

Cc1ccc(C(=O)Nc2ccon2)cc1NC(=O)c1cnn(-c2ccccc2F)c1N
IC50 [2]: > 15000 nM
IC50 [3]: > 50000 nM
IC50 (Cytochrome P450 2C9): 23000 nM
IC50 [4]: > 13000 nM
IC50 [5]: > 160000 nM
IC50 [6]: > 50000 nM
IC50 (Cytochrome P450 2D6): > 40000 nM
IC50 [7]: 9200 nM
IC50 [1]: 2 nM
IC50 [8]: > 10000 nM
IC50 [9]: > 50000 nM
IC50 [10]: > 15000 nM
inhibition in vivo at 5 mg/kg (Mus musculus): > 75%
IC50 [11]: > 5000 nM
IC50 [12]: > 20000 nM
IC50 (PBMC): 1 nM
IC50 [13]: > 40000 nM
metabolic rate at 10 min, 3 µM [14]: 0 nmol/min/mg
IC50 [15]: > 10000 nM
IC50 [16]: > 50000 nM
solubility [17]: 33 µg/mL (≈ 78.5 µM)
IC50 [18]: > 50000 nM
metabolic rate at 10 min, 3 µM [19]: 0.001 nmol/min/mg
IC50 [20]: > 50000 nM
IC50 [21]: > 40000 nM
IC50 (Cytochrome P450 3A4): > 40000 nM
Papp [22]: 23.1 ×10⁻⁶ cm/s
IC50 (Cytochrome P450 1A2): > 40000 nM
IC50 [23]: > 20000 nM
IC50 [24]: > 50000 nM
IC50 [25]: > 5000 nM
IC50 (Cytochrome P450 2C19): > 13000 nM
metabolic rate at 10 min, 3 µM [26]: 0 nmol/min/mg
IC50 [27]: > 30000 nM
